Assay results published in ChEMBL document CHEMBL1201862, “PubChem BioAssay data set” (2004).
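Tested at 5 concentrations; 48 h exposure; 96-well plates; endpoints linearly interpolated, else capped at highest concentration. Here, GI50 denotes the concentration required for 50% inhibition of growth.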 The source made the active and inactive calls. No stated cut-off is given here; in the data, active = GI50 up to about 1.1 µM and inactive = higher.

How the values were obtained:
Assay in all cases: inhibition of tumour cell growth, NCI panel, 48 h
TK-10 = test system: TK-10
CCRF-CEM = test system: CCRF-CEM
EKVX = test system: EKVX
IGROV-1 = test system: IGROV-1
HOP-92 = test system: HOP-92
CAKI-1 = test system: CAKI-1
KM12 = test system: KM12
MDA-N = test system: MDA-N
SK-OV-3 = test system: SK-OV-3
A498 = test system: A498
MDA-MB-231 = test system: MDA-MB-231
SF-539 = test system: SF-539
SK-MEL-28 = test system: SK-MEL-28
SW-620 = test system: SW-620
NCI-H23 = test system: NCI-H23
MDA-MB-435 = test system: MDA-MB-435
OVCAR-8 = test system: OVCAR-8
SF-268 = test system: SF-268
A549 = test system: A549
NCI-H226 = test system: NCI-H226
MCF7 = test system: MCF7
NCI-H522 = test system: NCI-H522
NCI/ADR-RES = test system: NCI/ADR-RES
U-251 = test system: U-251
HL-60 = test system: HL-60
Malme-3M = test system: Malme-3M
ACHN = test system: ACHN
786-0 = test system: 786-0
M14 = test system: M14
HCT-116 = test system: HCT-116
OVCAR-4 = test system: OVCAR-4
HCC 2998 = test system: HCC 2998
SK-MEL-5 = test system: SK-MEL-5
HOP-62 = test system: HOP-62
LOX IMVI = test system: LOX IMVI
BT-549 = test system: BT-549
UO-31 = test system: UO-31
UACC-62 = test system: UACC-62
RPMI-8226 = test system: RPMI-8226
DU-145 = test system: DU-145
COLO 205 = test system: COLO 205
OVCAR-5 = test system: OVCAR-5
SNB-75 = test system: SNB-75
Hs-578T = test system: Hs-578T
T47D = test system: T47D
OVCAR-3 = test system: OVCAR-3
RXF 393 = test system: RXF 393
NCI-H460 = test system: NCI-H460
HT-29 = test system: HT-29
K562 = test system: K562
PC-3 = test system: PC-3
HCT-15 = test system: HCT-15
SR = test system: SR
UACC-257 = test system: UACC-257
SN12C = test system: SN12C
SF-295 = test system: SF-295
SNB-19 = test system: SNB-19
SK-MEL-2 = test system: SK-MEL-2
MOLT-4 = test system: MOLT-4

## N#C/C(=C\Nc1ccccn1)C(=O)C1CC1
TK-10
  GI50: > 100 µM (inactive)
CCRF-CEM
  GI50: 76.9 µM (inactive)
EKVX
  GI50: > 100 µM (inactive)
IGROV-1
  GI50: > 100 µM (inactive)
HOP-92
  GI50: > 100 µM (inactive)
CAKI-1
  GI50: > 100 µM (inactive)
KM12
  GI50: > 100 µM (inactive)
MDA-N
  GI50: > 100 µM (inactive)
SK-OV-3
  GI50: > 100 µM (inactive)
A498
  GI50: > 100 µM (inactive)
MDA-MB-231
  GI50: > 100 µM (inactive)
SF-539
  GI50: > 100 µM (inactive)
SK-MEL-28
  GI50: > 100 µM (inactive)
SW-620
  GI50: > 100 µM (inactive)
NCI-H23
  GI50: > 100 µM (inactive)
MDA-MB-435
  GI50: > 100 µM (inactive)
OVCAR-8
  GI50: > 100 µM (inactive)
SF-268
  GI50: > 100 µM (inactive)
A549
  GI50: > 100 µM (inactive)
NCI-H226
  GI50: > 100 µM (inactive)
MCF7
  GI50: > 100 µM (inactive)
NCI-H522
  GI50: > 100 µM (inactive)
NCI/ADR-RES
  GI50: > 100 µM (inactive)
U-251
  GI50: > 100 µM (inactive)
HL-60
  GI50: > 100 µM (inactive)
Malme-3M
  GI50: > 100 µM (inactive)
ACHN
  GI50: > 100 µM (inactive)
786-0
  GI50: > 100 µM (inactive)
M14
  GI50: > 100 µM (inactive)
HCT-116
  GI50: > 100 µM (inactive)
OVCAR-4
  GI50: > 100 µM (inactive)
HCC 2998
  GI50: > 100 µM (inactive)
SK-MEL-5
  GI50: > 100 µM (inactive)
HOP-62
  GI50: > 100 µM (inactive)
LOX IMVI
  GI50: > 100 µM (inactive)
BT-549
  GI50: > 100 µM (inactive)
UO-31
  GI50: > 100 µM (inactive)
UACC-62
  GI50: > 100 µM (inactive)
RPMI-8226
  GI50: > 100 µM (inactive)
DU-145
  GI50: > 100 µM (inactive)
COLO 205
  GI50: > 100 µM (inactive)
OVCAR-5
  GI50: > 100 µM (inactive)
SNB-75
  GI50: > 100 µM (inactive)
Hs-578T
  GI50: > 100 µM (inactive)
T47D
  GI50: > 100 µM (inactive)
OVCAR-3
  GI50: > 100 µM (inactive)
RXF 393
  GI50: > 100 µM (inactive)
NCI-H460
  GI50: > 100 µM (inactive)
HT-29
  GI50: > 100 µM (inactive)
K562
  GI50: > 100 µM (inactive)
PC-3
  GI50: > 100 µM (inactive)
HCT-15
  GI50: > 100 µM
SR
  GI50: > 100 µM (inactive)
UACC-257
  GI50: > 100 µM (inactive)
SN12C
  GI50: > 100 µM (inactive)
SF-295
  GI50: > 100 µM (inactive)
SNB-19
  GI50: > 100 µM (inactive)
SK-MEL-2
  GI50: > 100 µM (inactive)
MOLT-4
  GI50: > 100 µM (inactive)

## N#C/C(=C/N1C(=O)/C(=C/c2ccc([N+](=O)[O-])cc2)SC1=S)c1nc2ccccc2s1
TK-10
  GI50: 26.9 µM (inactive)
CCRF-CEM
  GI50: 24.5 µM (inactive)
EKVX
  GI50: 18.4 µM (inactive)
IGROV-1
  GI50: 12.3 µM (inactive)
HOP-92
  GI50: 17.5 µM (inactive)
CAKI-1
  GI50: 30.8 µM (inactive)
KM12
  GI50: 28.2 µM (inactive)
MDA-N
  GI50: 24.4 µM (inactive)
SK-OV-3
  GI50: 15.9 µM (inactive)
A498
  GI50: 12.1 µM (inactive)
MDA-MB-231
  GI50: 12.8 µM (inactive)
SF-539
  GI50: 28.9 µM (inactive)
SK-MEL-28
  GI50: 30.1 µM (inactive)
SW-620
  GI50: 34.8 µM (inactive)
NCI-H23
  GI50: 20.7 µM (inactive)
MDA-MB-435
  GI50: 29.5 µM (inactive)
OVCAR-8
  GI50: 37.9 µM (inactive)
SF-268
  GI50: 24.7 µM (inactive)
A549
  GI50: 25.6 µM (inactive)
NCI-H226
  GI50: 12.2 µM (inactive)
MCF7
  GI50: 15.6 µM (inactive)
NCI-H522
  GI50: 12.6 µM (inactive)
NCI/ADR-RES
  GI50: 32.7 µM (inactive)
U-251
  GI50: 15.2 µM (inactive)
HL-60
  GI50: 17.5 µM (inactive)
Malme-3M
  GI50: 25.8 µM (inactive)
ACHN
  GI50: 17.3 µM (inactive)
786-0
  GI50: 25.4 µM (inactive)
M14
  GI50: 27.8 µM (inactive)
HCT-116
  GI50: 14.3 µM (inactive)
OVCAR-4
  GI50: 29.7 µM (inactive)
HCC 2998
  GI50: 14.2 µM (inactive)
SK-MEL-5
  GI50: 11.4 µM (inactive)
HOP-62
  GI50: 0.406 µM (active)
LOX IMVI
  GI50: 26.4 µM (inactive)
BT-549
  GI50: 19.4 µM (inactive)
UO-31
  GI50: 16.1 µM (inactive)
UACC-62
  GI50: 4.42 µM (inactive)
RPMI-8226
  GI50: 11.1 µM (inactive)
DU-145
  GI50: 31.8 µM (inactive)
COLO 205
  GI50: 14.5 µM (inactive)
OVCAR-5
  GI50: 29.1 µM (inactive)
SNB-75
  GI50: 25.1 µM (inactive)
Hs-578T
  GI50: 29.6 µM (inactive)
T47D
  GI50: 8.85 µM (inactive)
OVCAR-3
  GI50: 3.48 µM (inactive)
RXF 393
  GI50: 19.3 µM (inactive)
NCI-H460
  GI50: 14.8 µM (inactive)
HT-29
  GI50: 31.2 µM (inactive)
K562
  GI50: 17.5 µM (inactive)
PC-3
  GI50: 13.8 µM (inactive)
HCT-15
  GI50: 21.6 µM
SR
  GI50: 25.6 µM (inactive)
UACC-257
  GI50: 14.2 µM (inactive)
SN12C
  GI50: 23.5 µM (inactive)
SF-295
  GI50: 11.3 µM (inactive)
SNB-19
  GI50: 29.6 µM (inactive)
SK-MEL-2
  GI50: 16.7 µM (inactive)
